Data on nine compounds can be found in patent US20100331312A1, “MODULATORS OF THE HISTAMINE H3 RECEPTOR USEFUL FOR THE TREATMENT OF DISORDERS RELATED THERETO” (ARENA PHARMACEUTICALS, INC., priority 2008, published 2010).

pKi: −log10 of the molar value. Where a name gives a salt, the structure may show the parent alone.

Series [1] addresses T1, Histamine H3 Receptor (Rattus norvegicus, UniProt Q9QYN8). Put plainly: Blockade of RAMH-induced drinking assay. Type of series: in vivo. Particulars: male Sprague Dawley rats, 0.3 mg/kg PO, RAMH 3 mg/kg SC, reduction in water intake. As for the experimental part: Blockade of RAMH-Induced Drinking Assay
When administered to rodents, histamine H3 receptor agonists such as (R)-α-methylhistamine (RAMH) induce a drinking response that is sensitive to reversal with a histamine H3 receptor antagonist. Blockade of RAMH-induced drinking can therefore be utilized as an in vivo assay for functional histamine H3 receptor antagonist activity. In this assay, male Sprague Dawley rats (250-350 g) were housed three per cage and maintained under a reverse 12 h light cycle (lights off at 1130 h). At 1030 h on the day of test, rats were individually housed in new cages and food was removed. 120 min later, rats were administered test article (vehicle or histamine H3 receptor antagonist, 0.3 mg/kg PO). 30 min later, water was removed, and RAMH (vehicle or RAMH 3 mg/kg salt SC) was administered. 10 min after administration of RAMH, weighed water bottles were placed in the cages, and drinking was allowed for 20 min. Water consumption was determined for each animal by weighing each bottle to the nearest 0.1 g. Data is expressed as percentage reduction in water intake according to the following formula:
[((VEH/RAMH)−(ANTAGONIST/RAMH))/((VEH/RAMH)−(VEH/VEH))]*100

Series [2] concerns the target T1, Histamine H3 Receptor. Put plainly: [3H] N-alpha-methyl-histamine competitive histamine H3 receptor binding assay. The arrangement: A crude membrane fraction was prepared from whole rat brain cortex; from tissue; host or cells: whole rat brain cortex, crude membrane fraction. Particulars: whole rat brain cortex membranes, [3H]-N-α-methylhistamine 1 nM. How it is done:
[^3H] N-Alpha-Methyl-Histamine Competitive Histamine H3 Receptor Binding Assay
The histamine receptor binding assay was conducted using standard laboratory procedures as described below. A crude membrane fraction was prepared from whole rat brain cortex using a polytron to homogenize the tissue followed by differential centrifugation in a HEPES-based buffer containing protease inhibitors. Membranes where frozen at −80° C. until needed. Frozen membranes were thawed and resuspended in ice-cold assay buffer consisting of 50 mM TRIS containing 5 mM EDTA (pH=7.4). 50 micrograms (μg) of membrane protein was added to each well of a 96-well assay plate along with test compound and [^3H]-N-α-methylhistamine (1 nanomolar (nM) final assay concentration). Imetit was used as an assay positive control at varying concentrations. The plate was incubated for 30 min at room temperature. The assay was terminated by rapid filtration through a 96-well glass fiber filtration plate (GF/C) using a cell harvester (Perkin-Elmer). Captured membranes were washed three times with cold assay buffer and plates were dried at 50° C. 35 microliters (μL) of scintillation cocktail was added to each well and membrane-bound radioactivity was recorded using a TopCount 96-well plate scintillation counter (Perkin-Elmer).

For series [3], the target named is T2, human histamine H3 receptor (Homo sapiens, UniProt Q9Y5N1).
T2 construct: purchased MDS Pharma Services (Taiwan) 239810
T2 sequence (Q9Y5N1 whole entry): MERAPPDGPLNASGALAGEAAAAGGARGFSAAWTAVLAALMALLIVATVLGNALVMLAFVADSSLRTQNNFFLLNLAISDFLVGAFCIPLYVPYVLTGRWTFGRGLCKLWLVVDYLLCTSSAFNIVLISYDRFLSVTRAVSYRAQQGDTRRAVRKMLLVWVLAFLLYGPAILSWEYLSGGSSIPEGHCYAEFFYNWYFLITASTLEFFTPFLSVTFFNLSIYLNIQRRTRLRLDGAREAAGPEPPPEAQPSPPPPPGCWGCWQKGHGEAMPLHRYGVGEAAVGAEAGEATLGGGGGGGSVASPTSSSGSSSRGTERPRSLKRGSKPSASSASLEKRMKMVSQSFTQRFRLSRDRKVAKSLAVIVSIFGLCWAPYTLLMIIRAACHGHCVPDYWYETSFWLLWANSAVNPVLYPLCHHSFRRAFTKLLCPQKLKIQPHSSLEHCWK
The series can be described thus: Human histamine H3 receptor binding assay, MDS Pharma Services (Taiwan), Catalogue No. 239810. As for the experimental part:
Human Histamine H3 Receptor Binding Assay—MDS Pharma Services (Taiwan)
Compounds of the invention were tested for their ability to bind to the human histamine H3 receptor using the MDS Pharma Services (Taiwan) assay, Catalogue No. 239810.

The nature of series [4]: Dynamic vapor sorption (DVS) hygroscopicity. Type of series: physicochemical. Particulars: 25° C. As for the experimental part: Dynamic Vapor Sorption (DVS)
Hygroscopicity was measured using a dynamic moisture-sorption analyzer, VTI Corporation, SGA-100. The sample was placed as-is in a tared sample holder on the VTI balance. A drying step was run at 40° C. and ˜1% RH for 120 minutes. The isotherm conditions are 25° C. with steps of 20% RH from 10% RH up to 90% RH and back to 10% RH. Weight is checked every 2 minutes. Percent weight change of <0.01% in 20 minutes or 2 hours, whichever occurs first, is required before continuing to the next step. The DVS profile for the crystalline form (Form 1) of (R)-2-hydroxy-1-(6-(4-(2-(2-methylpyrrolidin-1-yl)ethyl)phenyl)-3,4-dihydroisoquinolin-2(1H)-yl)ethanone hydrochloride is shown in FIG. 16.

T1 sequence (Q9QYN8 whole entry): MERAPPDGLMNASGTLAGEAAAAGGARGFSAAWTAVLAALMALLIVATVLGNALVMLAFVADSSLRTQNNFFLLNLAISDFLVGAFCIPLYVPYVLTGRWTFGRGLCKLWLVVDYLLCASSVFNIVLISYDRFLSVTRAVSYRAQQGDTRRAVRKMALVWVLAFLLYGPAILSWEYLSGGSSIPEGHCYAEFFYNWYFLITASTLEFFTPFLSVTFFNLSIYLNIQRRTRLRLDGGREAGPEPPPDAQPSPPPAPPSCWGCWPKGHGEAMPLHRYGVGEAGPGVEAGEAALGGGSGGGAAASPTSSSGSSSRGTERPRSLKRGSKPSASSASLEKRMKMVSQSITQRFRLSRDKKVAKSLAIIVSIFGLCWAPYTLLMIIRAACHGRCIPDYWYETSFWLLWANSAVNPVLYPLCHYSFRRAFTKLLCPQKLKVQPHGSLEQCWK

With `COCCC(=O)N1CCc2ccc(-c3ccc(CCN4CCC[C@H]4C)cc3)cc2C1` [Compound 1, (R)-3-methoxy-1-(7-(4-(2-(2-methylpyrrolidin-1-yl)ethyl)phenyl)-3,4-dihydroisoquinolin-2(1H)-yl)propan-1-one], the “% inhibition of RAMH-induced drinking” value at Histamine H3 Receptor [1] was found to be 81.6%.

The term pKi denotes the negative decadic logarithm of the Ki, by convention in mol/L. A high value points to a small Ki. In turn, `C[C@@H]1CCCN1CCc1ccc(-c2ccc3c(c2)CCN(C(=O)C2CC2)C3)cc1` [Compound 3, (R)-cyclopropyl(6-(4-(2-(2-methylpyrrolidin-1-yl)ethyl)phenyl)-3,4-dihydroisoquinolin-2(1H)-yl)methanone] had a negative-log Ki (pKi) on Histamine H3 Receptor [2] of 9.35. Regarding `C[C@@H]1CCCN1CCc1ccc(-c2ccc3c(c2)CN(C(=O)C2CC2)C3)cc1` [Compound 5, (R)-cyclopropyl(5-(4-(2-(2-methylpyrrolidin-1-yl)ethyl)phenyl)isoindolin-2-yl)methanone], the pKi in series [3] was 9.24; on Histamine H3 Receptor [2], 9.96. Take `COc1ccc(C(=O)N2CCc3cc(-c4ccc(CCN5CCC[C@H]5C)cc4)ccc3C2)cc1` [Compound 9, (R)-(4-methoxyphenyl)(6-(4-(2-(2-methylpyrrolidin-1-yl)ethyl)phenyl)-3,4-dihydroisoquinolin-2(1H)-yl)methanone]: at Histamine H3 Receptor [2], the pKi was 8.96. `C[C@@H]1CCCN1CCc1ccc(-c2ccc3c(c2)CCN(C(=O)CO)C3)cc1` [Compound 10 HCl Salt (Form 1), (R)-2-hydroxy-1-(6-(4-(2-(2-methylpyrrolidin-1-yl)ethyl)phenyl)-3,4-dihydroisoquinolin-2(1H)-yl)ethanone hydrochloride]: the “DVS absorption at 90% relative humidity” value in series [4] (crystalline Form 1, hydrochloride) is “FIG. 16: absorption of less than 0.25%”; in series [4] (crystalline Form 1, listed as Form 1 of the HCl salt of Compound 10, hydrochloride), “about 0.25%”. Compound `C[C@@H]1CCCN1CCc1ccc(-c2ccc3c(c2)CN(C(=O)C2CCOCC2)C3)cc1` [Compound 12, (R)-(5-(4-(2-(2-methylpyrrolidin-1-yl)ethyl)phenyl)isoindolin-2-yl)(tetrahydro-2H-pyran-4-yl)methanone] gave a negative-log Ki (pKi) on Histamine H3 Receptor [2] of 10.05. Take `C[C@@H]1CCCN1CCc1ccc(-c2ccc3c(c2)CCN(C(=O)c2ccncc2)C3)cc1` [Compound 14, (R)-(6-(4-(2-(2-methylpyrrolidin-1-yl)ethyl)phenyl)-3,4-dihydroisoquinolin-2(1H)-yl)(pyridin-4-yl)methanone]: the “% inhibition of RAMH-induced drinking” value on Histamine H3 Receptor [1] turned out to be 40.7%.

In the case of `C[C@@H]1CCCN1CCc1ccc(-c2ccc3c(c2)CCN(C(=O)CCO)C3)cc1` [Compound 16, (R)-3-hydroxy-1-(6-(4-(2-(2-methylpyrrolidin-1-yl)ethyl)phenyl)-3,4-dihydroisoquinolin-2(1H)-yl)propan-1-one], the negative-log Ki (pKi) on Histamine H3 Receptor [2] is 8.82.

Compound `C[C@@H]1CCCN1CCc1ccc(-c2ccc3c(c2)CCN(C(=O)c2ccccn2)C3)cc1` [Compound 18, (R)-(6-(4-(2-(2-methylpyrrolidin-1-yl)ethyl)phenyl)-3,4-dihydroisoquinolin-2(1H)-yl)(pyridin-2-yl)methanone] had a pKi in series [3] of 8.67. The “% inhibition of RAMH-induced drinking” value on Histamine H3 Receptor [1] came out at 66.1%.
